{"source": "ChEMBL document CHEMBL4330132", "about": "“5-Keto-3-cyano-2,4-diaminothiophenes as selective maternal embryonic leucine zipper kinase inhibitors” (Bioorg Med Chem Lett, 2019)", "key": {"[1]": {"molecular_target": "Serine/threonine-protein kinase/endoribonuclease IRE1 (Homo sapiens) (UniProt O75460)", "assay": "Binding affinity to wild-type human partial length ERN1 (S551 to E852 residues) expressed in mammalian expression system assessed as residual binding level at 1 uM by Kinomescan method relative to control"}, "[2]": {"molecular_target": "Serine/threonine-protein kinase D2 (Homo sapiens) (UniProt Q9BZL6)", "assay": "Binding affinity to wild-type human partial length PRKD2 (A519 to E838 residues) expressed in bacterial expression system assessed as residual binding level at 1 uM by Kinomescan method relative to control"}, "[3]": {"molecular_target": "Serine/threonine-protein kinase RIO1 (Homo sapiens) (UniProt Q9BRS2)", "sequence (Q9BRS2 whole entry, the tested form may be a part)": "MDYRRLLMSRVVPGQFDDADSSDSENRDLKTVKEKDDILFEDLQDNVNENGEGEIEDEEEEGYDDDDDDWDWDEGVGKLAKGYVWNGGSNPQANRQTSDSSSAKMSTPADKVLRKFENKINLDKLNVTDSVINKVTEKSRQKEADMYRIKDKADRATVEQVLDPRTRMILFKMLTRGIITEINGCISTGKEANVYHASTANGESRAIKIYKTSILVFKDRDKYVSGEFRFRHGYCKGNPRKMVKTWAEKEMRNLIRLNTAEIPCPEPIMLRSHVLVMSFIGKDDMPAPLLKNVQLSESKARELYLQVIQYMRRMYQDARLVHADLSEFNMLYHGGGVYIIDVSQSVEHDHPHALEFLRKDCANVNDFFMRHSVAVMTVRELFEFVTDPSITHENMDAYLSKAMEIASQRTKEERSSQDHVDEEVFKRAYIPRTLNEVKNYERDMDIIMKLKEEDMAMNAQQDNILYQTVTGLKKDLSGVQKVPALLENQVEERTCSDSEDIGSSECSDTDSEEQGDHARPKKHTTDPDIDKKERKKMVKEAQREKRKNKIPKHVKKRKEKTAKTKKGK", "assay": "Binding affinity to wild-type human full length RIOK1 (M1 to K568 residues) expressed in bacterial expression system assessed as residual binding level at 1 uM by Kinomescan method relative to control"}, "[4]": {"molecular_target": "Mitogen-activated protein kinase kinase kinase 3 (Homo sapiens) (UniProt Q99759)", "assay": "Binding affinity to wild-type human partial length MAP3K3 (E320 to Y626 residues) expressed in mammalian expression system assessed as residual binding level at 1 uM by Kinomescan method relative to control"}, "[5]": {"molecular_target": "Dual specificity protein kinase CLK1 (Homo sapiens) (UniProt P49759)", "assay": "Binding affinity to wild-type human full length CLK1 (M1 to I484 residues) expressed in bacterial expression system assessed as residual binding level at 1 uM by Kinomescan method relative to control"}, "[6]": {"molecular_target": "Tyrosine-protein kinase CSK (Homo sapiens) (UniProt P41240)", "assay": "Binding affinity to wild-type human full length CSK (M1 to L450 residues) expressed in bacterial expression system assessed as residual binding level at 1 uM by Kinomescan method relative to control"}, "[7]": {"molecular_target": "Phosphatidylinositol 4,5-bisphosphate 3-kinase catalytic subunit delta isoform (Homo sapiens) (UniProt O00329)", "assay": "Binding affinity to wild-type human partial length PIK3CD (R108 to Q1044 residues) expressed in mammalian expression system assessed as residual binding level at 1 uM by Kinomescan method relative to control"}, "[8]": {"molecular_target": "RAC-gamma serine/threonine-protein kinase (Homo sapiens) (UniProt Q9Y243)", "assay": "Binding affinity to wild-type human partial length AKT3 expressed in bacterial expression system assessed as residual binding level at 1 uM by Kinomescan method relative to control"}, "[9]": {"test_system": "Tyrosine-protein kinase ABL1 (Homo sapiens), P00519 [F317I]", "assay": "Binding affinity to human phosphorylated ABL1 F317I mutant (S229 to K512 residues) expressed in mammalian expression system assessed as residual binding level at 1 uM by Kinomescan method relative to control"}, "[10]": {"molecular_target": "Myosin-IIIb (Homo sapiens) (UniProt Q8WXR4)", "sequence (Q8WXR4 whole entry, the tested form may be a part)": "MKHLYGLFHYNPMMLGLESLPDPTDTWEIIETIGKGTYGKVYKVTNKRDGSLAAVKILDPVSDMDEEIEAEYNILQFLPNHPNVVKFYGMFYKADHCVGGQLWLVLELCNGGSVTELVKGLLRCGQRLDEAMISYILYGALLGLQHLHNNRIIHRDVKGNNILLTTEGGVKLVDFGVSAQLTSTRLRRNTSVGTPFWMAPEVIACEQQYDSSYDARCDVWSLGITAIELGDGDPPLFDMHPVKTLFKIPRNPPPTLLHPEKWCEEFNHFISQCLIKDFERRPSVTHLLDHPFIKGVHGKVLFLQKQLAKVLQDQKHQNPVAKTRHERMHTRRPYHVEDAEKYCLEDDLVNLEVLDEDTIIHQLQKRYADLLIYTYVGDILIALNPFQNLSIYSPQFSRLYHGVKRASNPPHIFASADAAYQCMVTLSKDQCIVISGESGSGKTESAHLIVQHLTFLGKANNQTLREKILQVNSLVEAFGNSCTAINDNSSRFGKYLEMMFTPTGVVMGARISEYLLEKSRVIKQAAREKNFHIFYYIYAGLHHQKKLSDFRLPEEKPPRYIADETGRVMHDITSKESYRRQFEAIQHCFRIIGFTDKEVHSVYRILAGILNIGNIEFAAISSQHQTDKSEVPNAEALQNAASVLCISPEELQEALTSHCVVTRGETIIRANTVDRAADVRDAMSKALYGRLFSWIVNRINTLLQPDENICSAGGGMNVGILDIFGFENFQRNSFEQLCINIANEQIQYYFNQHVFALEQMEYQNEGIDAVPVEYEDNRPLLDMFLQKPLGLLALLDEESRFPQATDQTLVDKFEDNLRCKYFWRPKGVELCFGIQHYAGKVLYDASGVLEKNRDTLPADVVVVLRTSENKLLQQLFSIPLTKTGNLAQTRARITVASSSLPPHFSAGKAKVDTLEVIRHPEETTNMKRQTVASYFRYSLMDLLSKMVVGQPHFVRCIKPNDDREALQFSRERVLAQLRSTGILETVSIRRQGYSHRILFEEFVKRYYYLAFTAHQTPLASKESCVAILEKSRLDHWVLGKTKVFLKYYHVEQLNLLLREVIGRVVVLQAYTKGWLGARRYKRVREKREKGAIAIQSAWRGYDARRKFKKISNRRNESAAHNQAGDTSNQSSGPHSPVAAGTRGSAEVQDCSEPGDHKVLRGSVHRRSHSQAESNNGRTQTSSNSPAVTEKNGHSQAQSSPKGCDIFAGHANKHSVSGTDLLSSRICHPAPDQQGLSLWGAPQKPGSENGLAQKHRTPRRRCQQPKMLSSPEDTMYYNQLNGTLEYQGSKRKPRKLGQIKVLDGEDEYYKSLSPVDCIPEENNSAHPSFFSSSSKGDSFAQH", "assay": "Binding affinity to wild-type human partial length MYO3B (M1 to D357 residues) expressed in bacterial expression system assessed as residual binding level at 1 uM by Kinomescan method relative to control"}, "[11]": {"test_system": "Tyrosine-protein kinase ABL1 (Homo sapiens), P00519 [H396P]", "assay": "Binding affinity to human phosphorylated ABL1 H396P mutant (S229 to K512 residues) expressed in mammalian expression system assessed as residual binding level at 1 uM by Kinomescan method relative to control"}, "[12]": {"molecular_target": "Phosphatidylinositol 4-phosphate 5-kinase type-1 alpha (Homo sapiens) (UniProt Q99755)", "sequence (Q99755 whole entry, the tested form may be a part)": "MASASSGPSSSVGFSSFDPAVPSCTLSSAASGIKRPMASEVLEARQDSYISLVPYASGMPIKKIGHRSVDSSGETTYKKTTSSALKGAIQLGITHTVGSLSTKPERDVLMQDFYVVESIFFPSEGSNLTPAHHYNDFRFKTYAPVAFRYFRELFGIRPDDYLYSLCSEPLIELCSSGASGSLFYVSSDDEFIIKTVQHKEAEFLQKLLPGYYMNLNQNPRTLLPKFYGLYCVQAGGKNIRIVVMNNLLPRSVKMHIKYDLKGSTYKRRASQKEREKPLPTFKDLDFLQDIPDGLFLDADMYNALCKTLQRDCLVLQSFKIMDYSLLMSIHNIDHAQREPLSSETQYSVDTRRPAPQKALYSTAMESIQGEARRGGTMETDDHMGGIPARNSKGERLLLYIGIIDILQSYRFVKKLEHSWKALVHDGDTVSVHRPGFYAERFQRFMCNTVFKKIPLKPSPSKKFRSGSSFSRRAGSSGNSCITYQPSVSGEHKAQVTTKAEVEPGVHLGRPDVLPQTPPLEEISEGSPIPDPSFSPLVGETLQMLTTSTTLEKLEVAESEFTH", "assay": "Binding affinity to wild-type human full length PIP5K1A (M1 to H562 residues) expressed in bacterial expression system assessed as residual binding level at 1 uM by Kinomescan method relative to control"}, "[13]": {"molecular_target": "Insulin receptor (Homo sapiens) (UniProt P06213)", "assay": "Binding affinity to wild-type human partial length INSR (P997 to E1318 residues) expressed in mammalian expression system assessed as residual binding level at 1 uM by Kinomescan method relative to control"}, "[14]": {"molecular_target": "Serine/threonine-protein kinase pim-2 (Homo sapiens) (UniProt Q9P1W9)", "sequence (Q9P1W9 whole entry, looked up, the tested form may be a part)": "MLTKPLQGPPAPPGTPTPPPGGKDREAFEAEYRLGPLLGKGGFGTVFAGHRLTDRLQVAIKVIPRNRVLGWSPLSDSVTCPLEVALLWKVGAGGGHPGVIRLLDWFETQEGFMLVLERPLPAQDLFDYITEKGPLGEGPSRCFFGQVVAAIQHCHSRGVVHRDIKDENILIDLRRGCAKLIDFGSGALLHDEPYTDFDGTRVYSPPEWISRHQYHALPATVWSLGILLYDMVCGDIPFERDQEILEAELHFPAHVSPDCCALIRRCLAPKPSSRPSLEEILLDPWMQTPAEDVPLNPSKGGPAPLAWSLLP", "assay": "Binding affinity to wild-type human partial length PIM2 (M1 to E291 residues) expressed in bacterial expression system assessed as residual binding level at 1 uM by Kinomescan method relative to control"}, "[15]": {"molecular_target": "Dual serine/threonine and tyrosine protein kinase (Homo sapiens) (UniProt Q6XUX3)", "assay": "Binding affinity to wild-type human full length RIPK5 (M1 to T929 residues) expressed in mammalian expression system assessed as residual binding level at 1 uM by Kinomescan method relative to control"}, "[16]": {"molecular_target": "Non-receptor tyrosine-protein kinase TYK2 (Homo sapiens) (UniProt P29597)", "sequence (P29597 whole entry, the tested form may be a part)": "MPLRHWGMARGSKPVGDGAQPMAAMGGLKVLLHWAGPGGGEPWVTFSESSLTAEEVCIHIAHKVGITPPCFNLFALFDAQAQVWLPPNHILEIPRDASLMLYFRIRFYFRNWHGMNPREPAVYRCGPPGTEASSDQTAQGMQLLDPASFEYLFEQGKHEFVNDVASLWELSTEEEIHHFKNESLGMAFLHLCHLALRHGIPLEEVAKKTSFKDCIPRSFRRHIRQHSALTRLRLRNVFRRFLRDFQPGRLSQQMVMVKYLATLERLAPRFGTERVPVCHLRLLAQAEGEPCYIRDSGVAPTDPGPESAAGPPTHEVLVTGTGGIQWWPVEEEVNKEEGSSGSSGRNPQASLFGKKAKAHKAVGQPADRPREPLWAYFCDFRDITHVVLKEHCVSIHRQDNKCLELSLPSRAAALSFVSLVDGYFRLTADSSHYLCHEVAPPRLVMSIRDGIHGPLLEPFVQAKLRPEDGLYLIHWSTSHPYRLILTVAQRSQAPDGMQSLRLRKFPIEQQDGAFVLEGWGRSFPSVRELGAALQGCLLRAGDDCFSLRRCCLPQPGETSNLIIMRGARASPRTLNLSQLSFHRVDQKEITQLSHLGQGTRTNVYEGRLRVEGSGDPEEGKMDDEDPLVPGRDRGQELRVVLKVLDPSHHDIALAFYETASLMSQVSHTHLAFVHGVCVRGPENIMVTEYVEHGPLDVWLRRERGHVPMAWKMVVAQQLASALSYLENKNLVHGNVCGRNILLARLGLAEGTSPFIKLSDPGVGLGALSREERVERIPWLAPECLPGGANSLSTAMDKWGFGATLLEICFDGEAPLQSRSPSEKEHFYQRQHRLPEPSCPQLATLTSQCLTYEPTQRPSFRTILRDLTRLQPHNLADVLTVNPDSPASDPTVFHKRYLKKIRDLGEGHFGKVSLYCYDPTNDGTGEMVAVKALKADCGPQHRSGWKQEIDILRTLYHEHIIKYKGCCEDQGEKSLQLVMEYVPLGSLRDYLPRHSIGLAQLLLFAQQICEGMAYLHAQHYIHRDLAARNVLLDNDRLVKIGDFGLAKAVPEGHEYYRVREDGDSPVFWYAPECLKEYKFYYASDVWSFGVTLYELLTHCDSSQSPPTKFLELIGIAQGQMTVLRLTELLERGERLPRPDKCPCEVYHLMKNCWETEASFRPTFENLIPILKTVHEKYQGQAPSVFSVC", "assay": "Binding affinity to wild-type human partial length TYK2 JH1 catalytic domain (V877 to C1187 residues) expressed in mammalian expression system assessed as residual binding level at 1 uM by Kinomescan method relative to control"}, "[17]": {"molecular_target": "Ephrin type-B receptor 6 (Homo sapiens) (UniProt O15197)", "assay": "Binding affinity to wild-type human partial length EPHB6 (Q634 to P948 residues) expressed in mammalian expression system assessed as residual binding level at 1 uM by Kinomescan method relative to control"}, "[18]": {"molecular_target": "Fibroblast growth factor receptor 2 (Homo sapiens) (UniProt P21802)", "assay": "Binding affinity to wild-type human partial length FGFR2 (D457 to E769 residues) expressed in bacterial expression system assessed as residual binding level at 1 uM by Kinomescan method relative to control"}, "[19]": {"molecular_target": "Serine/threonine-protein kinase Nek5 (Homo sapiens) (UniProt Q6P3R8)", "sequence (Q6P3R8 whole entry, the tested form may be a part)": "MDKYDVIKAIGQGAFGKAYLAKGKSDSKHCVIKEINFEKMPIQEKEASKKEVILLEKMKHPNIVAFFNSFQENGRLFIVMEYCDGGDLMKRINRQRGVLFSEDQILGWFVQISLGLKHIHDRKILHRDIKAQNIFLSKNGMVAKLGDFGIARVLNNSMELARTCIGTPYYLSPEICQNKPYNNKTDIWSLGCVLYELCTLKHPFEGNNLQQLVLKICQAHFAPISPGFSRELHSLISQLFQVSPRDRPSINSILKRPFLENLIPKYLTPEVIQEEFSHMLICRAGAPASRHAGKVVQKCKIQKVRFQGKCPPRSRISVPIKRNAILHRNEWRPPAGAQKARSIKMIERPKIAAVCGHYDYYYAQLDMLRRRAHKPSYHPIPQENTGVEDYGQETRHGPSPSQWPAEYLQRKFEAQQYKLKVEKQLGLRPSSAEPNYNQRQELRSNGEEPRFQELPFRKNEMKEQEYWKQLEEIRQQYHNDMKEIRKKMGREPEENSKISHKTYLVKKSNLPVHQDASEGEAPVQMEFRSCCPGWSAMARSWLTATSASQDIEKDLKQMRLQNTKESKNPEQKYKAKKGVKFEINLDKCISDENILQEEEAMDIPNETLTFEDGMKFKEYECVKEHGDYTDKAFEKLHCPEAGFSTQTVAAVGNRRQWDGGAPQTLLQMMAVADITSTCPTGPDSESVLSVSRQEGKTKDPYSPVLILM", "assay": "Binding affinity to wild-type human partial length NEK5 (M1 to M279 residues) expressed in bacterial expression system assessed as residual binding level at 1 uM by Kinomescan method relative to control"}, "[20]": {"molecular_target": "Serine/threonine-protein kinase N2 (Homo sapiens) (UniProt Q16513)", "assay": "Binding affinity to wild-type human partial length PKN2 (E634 to C984 residues) expressed in bacterial expression system assessed as residual binding level at 1 uM by Kinomescan method relative to control"}, "[21]": {"molecular_target": "Casein kinase I isoform alpha (Homo sapiens) (UniProt P48729)", "sequence (P48729 2-337 limits assumed)": "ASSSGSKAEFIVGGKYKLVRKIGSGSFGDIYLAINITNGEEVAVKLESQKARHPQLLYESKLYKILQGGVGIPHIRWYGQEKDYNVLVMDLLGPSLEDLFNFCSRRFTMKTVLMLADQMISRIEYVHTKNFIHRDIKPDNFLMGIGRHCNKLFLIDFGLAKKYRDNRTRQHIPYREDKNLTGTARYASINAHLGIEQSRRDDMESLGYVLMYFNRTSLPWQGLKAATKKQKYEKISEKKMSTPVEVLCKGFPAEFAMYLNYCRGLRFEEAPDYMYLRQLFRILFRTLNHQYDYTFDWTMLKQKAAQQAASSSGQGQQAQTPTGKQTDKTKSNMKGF", "assay": "Binding affinity to wild-type human partial length CSNK1A1 (M1 to L450 residues) expressed in mammalian expression system assessed as residual binding level at 1 uM by Kinomescan method relative to control"}, "[22]": {"molecular_target": "Leukocyte tyrosine kinase receptor (Homo sapiens) (UniProt P29376)", "assay": "Binding affinity to wild-type human partial length LTK (P422 to S744 residues) expressed in bacterial expression system assessed as residual binding level at 1 uM by Kinomescan method relative to control"}, "[23]": {"molecular_target": "Glycogen synthase kinase-3 alpha (Homo sapiens) (UniProt P49840)", "assay": "Binding affinity to wild-type human full length GSK3A (M1 to S483 residues) expressed in bacterial expression system assessed as residual binding level at 1 uM by Kinomescan method relative to control"}, "[24]": {"molecular_target": "Serine/threonine-protein kinase MARK2 (Homo sapiens) (UniProt Q7KZI7)", "assay": "Binding affinity to wild-type human partial length MARK2 (M1 to R450 residues) expressed in bacterial expression system assessed as residual binding level at 1 uM by Kinomescan method relative to control"}, "[25]": {"molecular_target": "Vascular endothelial growth factor receptor 1 (Homo sapiens) (UniProt P17948)", "assay": "Binding affinity to wild-type human partial length FLT1 (R781 to F1239 residues) expressed in bacterial expression system assessed as residual binding level at 1 uM by Kinomescan method relative to control"}}}
{"smiles": "CC(C)Nc1sc(C(=O)c2ccc(Cl)s2)c(N)c1C#N", "values": [{"measurement": "Activity", "setting": "[1]", "value": 100, "unit": "%"}, {"measurement": "Activity", "setting": "[2]", "value": 100, "unit": "%"}, {"measurement": "Activity", "setting": "[3]", "value": 74, "unit": "%"}, {"measurement": "Activity", "setting": "[4]", "value": 100, "unit": "%"}, {"measurement": "Activity", "setting": "[5]", "value": 70, "unit": "%"}, {"measurement": "Activity", "setting": "[6]", "value": 88, "unit": "%"}, {"measurement": "Activity", "setting": "[7]", "value": 78, "unit": "%"}, {"measurement": "Activity", "setting": "[8]", "value": 100, "unit": "%"}, {"measurement": "Activity", "setting": "[9]", "value": 100, "unit": "%"}, {"measurement": "Activity", "setting": "[10]", "value": 98, "unit": "%"}, {"measurement": "Activity", "setting": "[11]", "value": 100, "unit": "%"}, {"measurement": "Activity", "setting": "[12]", "value": 81, "unit": "%"}, {"measurement": "Activity", "setting": "[13]", "value": 80, "unit": "%"}, {"measurement": "Activity", "setting": "[14]", "value": 100, "unit": "%"}, {"measurement": "Activity", "setting": "[15]", "value": 85, "unit": "%"}, {"measurement": "Activity", "setting": "[16]", "value": 100, "unit": "%"}, {"measurement": "Activity", "setting": "[17]", "value": 100, "unit": "%"}, {"measurement": "Activity", "setting": "[18]", "value": 99, "unit": "%"}, {"measurement": "Activity", "setting": "[19]", "value": 91, "unit": "%"}, {"measurement": "Activity", "setting": "[20]", "value": 73, "unit": "%"}, {"measurement": "Activity", "setting": "[21]", "value": 100, "unit": "%"}, {"measurement": "Activity", "setting": "[22]", "value": 100, "unit": "%"}, {"measurement": "Activity", "setting": "[23]", "value": 100, "unit": "%"}, {"measurement": "Activity", "setting": "[24]", "value": 91, "unit": "%"}, {"measurement": "Activity", "setting": "[25]", "value": 76, "unit": "%"}]}
